# Laboratory results reported in patent publication US8309685B2 (Celgene Avilomics Research, Inc., priority 2007, dated 2012).
# Like-named read-outs stand apart in the source and are kept apart here.
# Legend:
# [1] = target: T1, D168A mutant of the HCV NS3/4A 1b protease enzyme (Hepatitis C virus genotype 1b, UniProt P26663, D1194A); test: HCV Protease FRET Assay (IC50_APP), D168A mutant; type: biochemical; details: apparent IC50, D168A mutant; read-out: IC50_APP, HCV D168A
# T1 construct: 10× stocks of NS3/4A protease enzyme from Bioenza (Mountain View, Calif.); purchased Bioenza (Mountain View, Calif.)
# Procedure: (§1) HCV Protease FRET Assay for WT and Mutated NS3/4A 1b Enzymes (IC50—APP).
# (§2) The following protocol was used to generate “apparent” IC50 (IC50—APP) values as depicted in Table 6, below. […] 5 μL of each enzyme were added to Corning (#3575) 384-well, black, microtiter plates (Corning, N.Y.) after spotting a 0.5 μL volume of 50% DMSO and serially diluted compounds prepared in 50% DMSO. Protease reactions were immediately started after enzyme addition with the addition of 45 μL of the FRET substrate and monitored for 60-90 minutes at λex485/λem520 in a Synergy^4 plate reader from BioTek (Winooski, Vt.). At the conclusion of each assay, progress curves from each well were examined for linear reaction kinetics and fit statistics (R^2, 95% confidence intervals, absolute sum of squares).
# (§3) The compound numbers correspond to the compound numbers in Table 3. […] ;
# [2] = target: T2, wild type HCV NS3/4A 1b protease enzyme (Hepatitis C virus genotype 1b, UniProt P26663); test: HCV Protease FRET Assay (IC50_APP), wild type; type: biochemical
# T2 construct: 10× stocks of NS3/4A protease enzyme from Bioenza (Mountain View, Calif.); purchased Bioenza (Mountain View, Calif.)
# Procedure: as §1, §2, §3
# [3] = target: T3, A156T mutant of the HCV NS3/4A 1b protease enzyme (Hepatitis C virus genotype 1b, UniProt P26663, A1182T); test: HCV Protease FRET Assay (IC50_APP), A156T mutant; type: biochemical; details: apparent IC50, A156T mutant; read-out: IC50_APP, HCV A156T
# T3 construct: 10× stocks of NS3/4A protease enzyme from Bioenza (Mountain View, Calif.); purchased Bioenza (Mountain View, Calif.)
# Procedure: as §1, §2, §3
# [4] = tested on: HCV RNA replicon in cell line ET (luc-ubi-neo/ET), human Huh7 hepatoma; test: Method A: HCV RNA replicon antiviral assay (luciferase, ET cell line); type: cell-based, Hepatitis C virus; details: Hepatitis C virus, Huh-7, assay described in Example 22; for IC50: read-out: Replicon (IC50)
# Procedure: The compounds were assayed to evaluate the antiviral activity and cytotoxicity of compounds in vitro using HCV RNA replicons. This assay used the cell line ET (luc-ubi-neo/ET), which is a human Huh7 hepatoma cell line that contains an HCV RNA replicon with a stable luciferase (Luc) reporter and three cell culture-adaptive mutations. […]
# The ET cell line was grown in Dulbecco's modified essential media (DMEM), 10% fetal bovine serum (FBS), 1% penicillin-streptomycin (pen-strep), 1% glutamine, 250 μg/ml G418 in a 5% CO2 incubator at 37° C. All cell culture reagents were obtained from Mediatech (Manassas, Va.). Cells were trypsinized (1% trypsin:EDTA) and plated out at 5×10^3 cells/well in white 96-well assay plates (Costar) dedicated to cell number (cytotoxicity) or antiviral activity assessments. Drugs were added at six 3-fold concentrations each and the assay was run in DMEM, 5% FBS, 1% pen-strep, 1% glutamine. Human interferon alpha-2b (PBL Biolabs, New Brunswick, N.J.) was included in each run as a positive control compound. Cells were processed 72 hr post drug addition when the cells are still subconfluent. Antiviral activity was measured by analyzing replicon-derived luciferase activity using the Steady-Glo Luciferase Assay System (Promega, Madison, Wis.) according to manufacturer's instruction. The number of cells in each well was determined by CytoTox-1 reagent (Promega). Compound profile was derived by calculating applicable EC50 (effective concentration inhibiting virus replication by 50%), EC90 (effective concentration inhibiting virus replication by 90%), IC50 (concentration decreasing cell viability by 50%) and SI50 (selective index: […]) values.
# [5] = read-out: IC50_APP, WT, apparent IC50, wild type NS3/4A 1b
Compound,IC50 [1] [nM],"IC50 [2, 5] [nM]",IC50 [3] [nM],IC90 [4] [nM],IC50 [4] [nM],IC50 [2] [nM]
"C=CC(=O)N(C)CC[C@H](NC(=O)OC1CCCC1)C(=O)N1C[C@H](Oc2cc(-c3ccccc3)nc3cc(OC)ccc23)C[C@H]1C(=O)N[C@]1(C(=O)NS(=O)(=O)C2CC2)C[C@H]1C=C [Compound I-85, Cyclopentyl-(S)-1-((2S,4R)-2-((1R,2S)-1-(cyclopropylsulfonylcarbamoyl)-2-vinylcyclopropylcarbamoyl)-4-(7-methoxy-2-phenylquinolin-4-yloxy)pyrrolidin-1-yl)-4-(N-methylacrylamido)-1-oxobutan-2-ylcarbamate]",10 to 100,< 10,10 to 100,10 to 100,10 to 100,–
C=CC(=O)N(C)C[C@H](NC(=O)OC1CCCC1)C(=O)N1C[C@H](Oc2cc(-c3ccccc3)nc3cc(OC)ccc23)C[C@H]1C(=O)N[C@]1(C(=O)NS(=O)(=O)C2CC2)C[C@H]1C=C [Compound I-72],100 to 1000,< 10,100 to 1000,10 to 100,< 10,–
"C=CC(=O)N(C)C[C@H](NC(=O)OC(C)(C)C)C(=O)N1C[C@H](Oc2nccc3ccc(Br)cc23)C[C@H]1C(=O)N[C@]1(C(=O)NS(=O)(=O)C2CC2)C[C@H]1C=C [Compound I-84, tert-butyl-(S)-1-((2S,4R)-4-(7-bromoisoquinolin-1-yloxy)-2-((1R,2S)-1-(cyclopropylsulfonylcarbamoyl)-2-vinylcyclopropylcarbamoyl)pyrrolidin-1-yl)-3-(N-methylacrylamido)-1-oxopropan-2-ylcarbamate]",100 to 1000,< 10,100 to 1000,100 to 1000,10 to 100,–
"C=C[C@@H]1C[C@]1(NC(=O)[C@@H]1C[C@@H](Oc2cc(-c3ccccc3)nc3cc(OC)ccc23)CN1C(=O)C(CN(C)C(=O)C(=C)C(F)(F)F)NC(=O)OC(C)(C)C)C(=O)NS(=O)(=O)c1ccccc1 (stereo in doubt) [Compound I-53, tert-butyl-(S)-1-((2S,4R)-4-(7-methoxy-2-phenylquinolin-4-yloxy)-2-((1R,2S)-1-(phenylsulfonylcarbamoyl)-2-vinylcyclopropylcarbamoyl)pyrrolidin-1-yl)-3-(N-methyl-2-(trifluoromethyl)acrylamido)-1-oxopropan-2-ylcarbamate]",100 to 1000,< 10,10 to 100,> 10000,100 to 1000,–
"C=CC(=O)N(C)C[C@H](NC(=O)c1cnccn1)C(=O)N1C[C@H](Oc2cc(-c3ccccc3)nc3cc(OC)ccc23)C[C@H]1C(=O)N[C@]1(C(=O)NS(=O)(=O)C2CC2)C[C@H]1C=C [Compound I-58, (S)—N-3-(N-methyl)acrylamido-1-((2S,4R)-2-((1R,2S)-1-(cyclopropylsulfonylcarbamoyl)-2-vinylcyclopropylcarbamoyl)-4-(7-methoxy-2-phenylquinolin-4-yloxy)pyrrolidin-1-yl)-1-oxo-2-propylpyrazinecarboxamide]",1000 to 10000,10 to 100,1000 to 10000,1000 to 10000,100 to 1000,–
"C=CC(=O)N[C@@H](C(=O)N1C[C@H](Oc2cc(-c3ccccc3)nc3cc(OC)ccc23)C[C@H]1C(=O)N[C@]1(C(=O)NS(=O)(=O)C2CC2)C[C@H]1C=C)c1ccccc1 [Compound I-66, (2S,4R)-1-((R)-2-acrylamido-phenylacetyl)-N-((1R,2S)-1-(cyclopropylsulfonylcarbamoyl)-2-vinylcyclopropyl)-4-(7-methoxy-2-phenylquinolin-4-yloxy)pyrrolidine-2-carboxamide]",100 to 1000,< 10,100 to 1000,100 to 1000,10 to 100,–
"C=C[C@@H]1C[C@]1(NC(=O)[C@@H]1C[C@@H](Oc2cc(-c3ccccc3)nc3cc(OC)ccc23)CN1C(=O)[C@H](CCC(=O)N1CCC1=O)NC(=O)OC(C)(C)C)C(=O)NS(=O)(=O)C1CC1 [Compound I-70, t-butyl-(2S)-1-((2S,4R)-2-((1R,2S)-1-(cyclopropylsulfonylcarbamoyl)-2-vinylcyclopropylcarbamoyl)-4-(7-methoxy-2-phenylquinolin-4-yloxy)pyrrolidin-1-yl)-5-(2-oxoazetidinyl)-1,5-dioxopentan-2-ylcarbamate]",< 10,< 10,< 10,100 to 1000,100 to 1000,–
"C=CC(=O)O[C@H](C)[C@H](NC(=O)OC(C)(C)C)C(=O)N1C[C@H](Oc2cc(-c3ccccc3)nc3cc(OC)ccc23)C[C@H]1C(=O)N[C@]1(C(=O)NS(=O)(=O)C2CC2)C[C@H]1C=C [Compound I-64, t-butyl-(2S,3R)-3-acryloxy-1-((2S,4R)-2-((1R,2S)-1-(cyclopropylsulfonylcarbamoyl)-2-vinylcyclopropylcarbamoyl)-4-(7-methoxy-2-phenylquinolin-4-yloxy)pyrrolidin-1-yl)-1-oxobutan-2-ylcarbamate]",10 to 100,< 10,10 to 100,100 to 1000,100 to 1000,–
"C=C[C@@H]1C[C@]1(NC(=O)[C@@H]1C[C@@H](Oc2cc(-c3ccccc3)nc3cc(OC)ccc23)CN1C(=O)[C@H](Cc1ccc(F)c([N+](=O)[O-])c1)NC(=O)OC(C)(C)C)C(=O)NS(=O)(=O)c1ccccc1 [Compound I-59, tert-butyl-(S)-1-((2S,4R)-4-(7-methoxy-2-phenylquinolin-4-yloxy)-2-((1R,2S)-1-(phenylsulfonylcarbamoyl)-2-vinylcyclopropylcarbamoyl)pyrrolidin-1-yl)-3-(4-fluoro-3-nitrophenyl)-1-oxopropan-2-ylcarbamate]",1000 to 10000,< 10,1000 to 10000,1000 to 10000,100 to 1000,–
"C=CC(=O)N(C)C[C@H](NC(=O)OC(C)(C)C)C(=O)N1C[C@H](Oc2cc(-c3ccccc3)nc3cc(OC)ccc23)C[C@H]1C(=O)N[C@]1(C(=O)NS(=O)(=O)C2CC2)C[C@H]1C=C [Compound I-52, tert-butyl-(S)-1-((2S,4R)-2-((1R,2S)-1-(cyclopropylsulfonylcarbamoyl)-2-vinylcyclopropylcarbamoyl)-4-(7-methoxy-2-phenylquinolin-4-yloxy)pyrrolidin-1-yl)-3-(N-methylacrylamido)-1-oxopropan-2-ylcarbamate]",1000 to 10000,< 10,100 to 1000,< 10,< 10,–
"C=C[C@@H]1C[C@]1(NC(=O)[C@@H]1C[C@@H](Oc2nccc3ccc(-c4cccs4)cc23)CN1C(=O)[C@H](CCC(=O)C=C(C)C)NC(=O)OC(C)(C)C)C(=O)NS(=O)(=O)C1CC1 [Compound I-87, tert-butyl-(S)-1-((2S,4R)-2-((1R,2S)-1-(cyclopropylsulfonylcarbamoyl)-2-vinylcyclopropylcarbamoyl)-4-(7-(thiophen-2-yl)isoquinolin-1-yloxy)pyrrolidin-1-yl)-7-methyl-1,5-dioxooct-6-en-2-ylcarbamate]",100 to 1000,–,10 to 100,10 to 100,< 10,< 10
"C=C[C@@H]1C[C@]1(NC(=O)[C@@H]1C[C@@H](Oc2cc(-c3ccccc3)nc3cc(OC)ccc23)CN1C(=O)[C@H](CCC(=O)C=C(C)C)NC(=O)OC(C)(C)C)C(=O)NS(=O)(=O)C1CC1 [Compound I-68, tert-butyl-(S)-1-((2S,4R)-2-((1R,2S)-1-(cyclopropylsulfonylcarbamoyl)-2-vinylcyclopropylcarbamoyl)-4-(7-methoxy-2-phenylquinolin-4-yloxy)pyrrolidin-1-yl)-7-methyl-1,5-dioxooct-6-en-2-ylcarbamate]",100 to 1000,< 10,100 to 1000,10 to 100,< 10,–
